{
  "source": "patent US20090318534A1",
  "about": "“METHODS AND COMPOSITIONS FOR THE TREATMENT OF SKIN DISEASES AND DISORDERS” (THE REGENTS OF THE UNIVERSITY OF CALIFORNIA, priority 2006, published 2009)",
  "key": {"[1]": {"target": "T1, kallikrein stratum corneum tryptic enzyme (SCTE) (Homo sapiens, UniProt Q9Y337)", "T1 sequence (Q9Y337 23-293)": "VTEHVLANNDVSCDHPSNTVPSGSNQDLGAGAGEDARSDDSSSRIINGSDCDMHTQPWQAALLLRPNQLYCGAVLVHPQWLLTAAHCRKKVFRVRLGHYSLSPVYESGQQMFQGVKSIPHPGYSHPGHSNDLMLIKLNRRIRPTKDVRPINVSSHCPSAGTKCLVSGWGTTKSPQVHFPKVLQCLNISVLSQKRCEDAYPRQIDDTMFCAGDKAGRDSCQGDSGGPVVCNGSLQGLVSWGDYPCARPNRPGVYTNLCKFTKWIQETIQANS", "experiment": "Inhibition of SCTE in vitro", "assay_type": "biochemical", "from_the_text": "In one aspect of the disclosure, a method of treatment of inflammatory diseases and disorders, rosacea and or acnes comprises inhibiting cathelicidin expression or activity. Examples of compositions and methods for inhibiting the expression of cathelicidins include antisense, ribozyme and gene therapy techniques. For example, rosacea can be inhibited or treated using antisense or ribozyme therapies that reduce the expression of cathelicidin. In one aspect, a vitamin D inhibitor, or vitamin D receptor antagonist can be used to reduce expression of a cathelicidin. Examples of compositions and methods for inhibiting cathelicidin activity include antibodies and small molecule agents. In one aspect, the treatment is at the site of inflammation through topical inhibition of Vitamin D activity, inhibiting of a Vitamin D receptor activity, or an inhibitor of a protease that cleaves full length cathelicidin into its active fragments is provided. For example, a method of the disclosure comprises inhibiting the kallikrein stratum corneum tryptic enzyme (SCTE), an enzyme that cleaves the cathelicidin precursor protein."}, "[2]": {"tested_on": "protease activity in rosacea skin", "experiment": "Skin protease activity (BODIPY FL casein substrate) of rosacea skin extracts with protease inhibitors", "assay_type": "biochemical, human", "conditions": "tape-stripped rosacea facial skin extracts, FITC/BODIPY FL casein, 37° C. 24 h; 20 μg/ml aprotinin, 200 μM AEBSF; FIG. 3k", "description": "Skin protease activity. To obtain skin surface protease, facial skin was tape-stripped 20 times then immersed in 1 ml 1 M acetic acid and incubated 4° C. overnight, extracts were lyophilized and the pellet dissolved in 40 μl of 1×PBS, pH 7.4. Protease activity was monitored with EnzCheck® Protease Assay Kit green fluorescence (Molecular Probes, Inc., Eugene, Oreg.) according to manufacturer's instructions. Briefly, 10 μl of the aqueous solution collected from the skin surface was mixed with 190 μl of BODIPY FL casein substrate in 10 mM Tris-HCl, pH 7.8, and incubated at 37° C. for 24 h. Protease activity was monitored as increased fluorescence with SpectraMax GEMINI EM (Molecular Devices Corporation, Sunnyvale, Calif.). In some experiments protease inhibitors were added including mixed protease inhibitors (Complete EDTA-free, 1 tablet/50 ml; Roche, Indianapolis, Ind.), 200 μg/ml bestatin, 20 μg/ml E-64, and 20 μg/ml aprotinin (Sigma-Aldrich, St. Louis, Mo.), 200 μM 4-(2-aminoethyl)-benzenesulfonylfluoride (AEBSF), 200 μM human neutrophil elastase inhibitor (methoxysuccinyl-Ala-Ala-Pro-Ala-chloromethyl ketone), 200 μM human leukocyte elastase inhibitor (methoxysuccinyl-Ala-Ala-Pro-Val-chloromethylketone, Calbiochem, San Diego, Calif.)."}, "[3]": {"tested_on": "Normal human keratinocytes", "experiment": "Measurement of IL-8 release", "assay_type": "cell-based", "conditions": "peptides 3.2 μM, 6 h, ELISA; FIG. 4a", "description": "Measurement of IL-8 release. Normal human keratinocytes (Cascade Biologics) were grown in EpiLife medium (Cascade Biologics) supplemented with 0.06 mM Ca2, 1% EpiLife defined growth supplement, and 1% penicillin/streptomycin (Invitrogen Life Technologies). Cells were grown at 37° C. in a humidified atmosphere of 5% CO2 and 95% air. Human keratinocytes were cultured to confluence and treated with the cathelicidin peptides (3.2 μM) for 6 h. Supernatants were collected and placed in a sterile 96-well plate for ELISA. IL-8 production was determined by ELISA (R&D systems) according to the manufacturer's instructions."}, "mouse skin [4]": {"tested_on": "mouse skin", "experiment": "Mouse skin inflammation model, subcutaneous injection of cathelicidin peptides", "assay_type": "in vivo, Balb/C and C57/B16 mice", "conditions": "for skin inflammation (erythema, vascular dilatation) / histology of injected skin: 320 μM in 40 μl; for skin inflammation (erythema, vascular dilatation): injected twice a day for 2 d, assessed after 48 hr; for histology of injected skin: biopsy after 48 hr", "description": "Mouse skin inflammation models. All animal procedures were approved by the Veterans Affairs (VA) San Diego Healthcare System subcommittee on animal studies. Balb/C and C57/B16 mice shaved 24 h prior to treatments and injected subcutaneously on the back with 40 μl of peptide (320 μM) twice a day. Forty-eight h after initial injection (total 4 injections), skin inflammation was assessed by the severity of erythema and edema, then biopsied for histology.\nMouse skin inflammation models. Balb/C or […] mice shaved 24 h prior to treatments were injected subcutaneously on the back with 40 μl of peptide at different concentrations (320, 32, 3.2, 0.32 μM, and PBS as 0 μM) twice a day. Forty-eight h after initial injection (total 4 injection), skin inflammation was assessed by the severity of erythema and edema. Skin was then biopsied for hematoxlin eosin staining to examine the histopathological changes. Frozen sections were also prepared and processed for immunostaining that included rat monoclonal anti-mouse Ly-6G (BD Biosciences, San Jose, Calif.) or rat monoclonal anti-mouse CD31 (BD Biosciences). Goat anti-rat IgG conjugated to FITC (Abcam Inc., Cambridge, Mass.) was used as the secondary antibody. Nuclei were stained with DAPI and sections were mounted in ProLong Anti-Fade reagent (Molecular Probes). Images were obtained using an Olympus BX41 microscope (Scientific Instrument Company, Temecula, Calif.)."}, "mouse skin [5]": {"tested_on": "mouse skin", "experiment": "Subcutaneous injection of SCTE in mice, skin inflammation and cathelicidin processing", "assay_type": "in vivo", "description": "Skin from Spink5^−/− mice had altered expression of cathelicidin peptides similar to that seen in rosacea (FIG. 4i). The main peak was GLL-34 (m/z 3,877; FIG. 4i, arrowhead), a mouse cathelicidin peptide similar in activity to human LL-37. Like LL-37, GLL-34 was not detected in wild-type mouse littermates with normal serine protease activity. […] To determine whether an increase in SCTE results in greater inflammation, SCTE was injected subcutaneously in a manner similar to that used for the cathelicidin peptides themselves. The amount of SCTE in human skin is as high as 2-13 ng per mg of dry weight of skin. From the data of the protease assay, the amount of serine protease activity in lesional skin of individuals with rosacea was estimated to be as high as 500 ng of tryptic kallikrein per mg of dry weight of skin. Therefore, […] of SCTE was injected twice a day for 2 d to mimic local concentrations seen in rosacea. […] Therefore, the increase in SCTE observed in rosacea would account for the pathological changes observed this disease."}, "mouse cathelicidin": {"target": "T2, mouse cathelicidin (UniProt P51437)", "T2 sequence": "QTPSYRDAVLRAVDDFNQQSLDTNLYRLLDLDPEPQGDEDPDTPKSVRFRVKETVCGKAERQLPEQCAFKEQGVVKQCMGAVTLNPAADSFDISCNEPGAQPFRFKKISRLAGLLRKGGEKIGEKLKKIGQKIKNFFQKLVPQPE"}},
  "note": "Entries after “also recorded” stand apart in the source; their conditions may differ.",
  "data": [
    {"molecule": "NCCc1ccc(S(=O)(=O)F)cc1", "note": "[AEBSF, 4-(2-aminoethyl)-benzenesulfonylfluoride]", "values": [
      {"measurement": "inhibition of SCTE in vitro", "setting": "[1]", "result": "can inhibit this enzyme in vitro"},
      {"measurement": "protease activity in rosacea skin", "setting": "[2]", "result": "completely suppressed protease activity; also recorded: effective in eliminating activity"}
    ]},
    {"molecule": "DI-27: synthetic cathelicidin peptide DISCDKDNKRFALLGDFFRKSKEKIGK (SEQ ID NO:7) (Partial Peptide Sequence from TOF-MS)", "values": [
      {"measurement": "secretion of IL-8 from cultured human keratinocytes", "setting": "[3]", "result": "did not"}
    ]},
    {"molecule": "FA-29: synthetic cathelicidin peptide FALLGDFFRKSKEKIGKEFKRIVQRIKDF (SEQ ID NO:10) (Partial Peptide Sequence from TOF-MS)", "values": [
      {"measurement": "secretion of IL-8 from cultured human keratinocytes", "setting": "[3]", "result": "induced secretion of IL-8"},
      {"measurement": "skin inflammation (erythema, vascular dilatation)", "setting": "mouse skin [4]", "result": "induced erythema and vascular dilatation"},
      {"measurement": "histology of injected skin", "setting": "mouse skin [4]; twice a day for 2 d", "result": "neutrophilic infiltrate, thrombosis and hemorrhage"}
    ]},
    {"molecule": "KR-20: synthetic cathelicidin peptide KRIVQRIKDFLRNLVPRTES (SEQ ID NO:15)", "values": [
      {"measurement": "secretion of IL-8 from cultured human keratinocytes", "setting": "[3]", "result": "did not induce cytokine release"},
      {"measurement": "skin inflammation (erythema, vascular dilatation)", "setting": "mouse skin [4]", "result": "did not induce inflammation"}
    ]},
    {"molecule": "LL-37: synthetic cathelicidin peptide LLGDFFRKSKEKIGKEFKRIVQRIKDFLRNLVPRTES (SEQ ID NO:14) (Partial Peptide Sequence from TOF-MS)", "values": [
      {"measurement": "secretion of IL-8 from cultured human keratinocytes", "setting": "[3]", "result": "induced secretion of IL-8"},
      {"measurement": "skin inflammation (erythema, vascular dilatation)", "setting": "mouse skin [4]", "result": "induced erythema and vascular dilatation"},
      {"measurement": "histology of injected skin", "setting": "mouse skin [4]; twice a day for 2 d", "result": "neutrophilic infiltrate, thrombosis and hemorrhage"},
      {"measurement": "lowest concentration with dose-dependent inflammatory reaction", "setting": "mouse skin [4]; 320-0.32 μM, 40 μl, twice a day for 2 d, FIG. 7d, Balb/C and C57/B16", "result": 3.2, "unit": "µM"}
    ]},
    {"molecule": "SCTE: kallikrein SCTE (stratum corneum tryptic enzyme, KLK5), serine protease that cleaves cathelicidin precursor", "values": [
      {"measurement": "cell infiltration after SCTE injection in Camp−/− mice compared with wild type mice", "setting": "mouse skin [5]; Camp−/− versus wild type, infiltrated cells per HPF, n=4, P<0.05", "result": "considerably less cell infiltration; also recorded: significantly less cell infiltration"},
      {"measurement": "skin inflammation and cathelicidin processing after SCTE injection", "setting": "mouse skin [5]; active SCTE injected subcutaneously twice a day for 2 d, versus control (boiled SCTE)", "result": "induced erythema and inflammatory cell infiltration accompanied by processing of cathelicidin peptide; also recorded: showed inflammation and processed cathelicidin peptide"}
    ]},
    {"molecule": "aprotinin", "values": [
      {"measurement": "inhibition of SCTE in vitro", "setting": "[1]", "result": "can inhibit this enzyme in vitro"},
      {"measurement": "protease activity in rosacea skin", "setting": "[2]", "result": "completely suppressed protease activity; also recorded: effective in eliminating activity"}
    ]},
    {"molecule": "stratum corneum tryptic enzyme (SCTE)", "values": [
      {"measurement": "cathelicidin processing in mouse skin after subcutaneous SCTE injection (SELDI-TOF-MS)", "setting": "mouse cathelicidin", "result": "SCTE-treated skin showed inflammation and processed cathelicidin peptide (m/z 4,244, sequence FKKISRLAGLLRKGGEKIGEKLKKIGQKIKNFFQKLV (SEQ ID NO:3))"}
    ]}
  ]
}
